Data taken from the supplement of paper PMC11208160.

experiment: recombinant UMI read abundance after kanamycin selection (control-corrected) (log10(CPM+1)); higher = more efficient recombination; extreme values may be limits of the assay; sequences stand for … in AGTGCAGAGAAAATCGGCCAGTTTTCTCTGCCTGCAGTCCGCATGCCGTGGGACCCCTTGGGTTCTAACCTGTTGCCTAGATTTATGCAGCGGACTGCCTTTCTCCCAAAGTGATAAACCGG…AGGTTGGTTTCACT; site = the 11-nt donor
Outline: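 Values are reported as log10(CPM+1), obtained by converting sequencing counts to CPM, averaging replicates and scaling by control-derived factors. The counts came from recombinant UMIs amplified by PCR across the donor–target junction. These UMIs came from a pooled Escherichia coli screen of donor and donor-binding-loop pairs for the IS621 bridge recombinase, plated with IPTG (0.07 mM) plus kanamycin or left unselected, in two replicates each.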
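Note: IS621 bridge recombinase in Escherichia coli cells against a fixed T5 target plasmid.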

In order of falling “recombinant UMI read abundance (log10)” value:
1. CGCGTCTCATGGACCGGTTTTCCCGGTAATCCGTATTTGTA (site CGCGTCTCTTA)  3.26
2. CGCAGCACATGGACCGGTTTTCCCGGTAATCCGTATTTGAC (site CGCAGCACTGT)  2.95
3. CGCTACTCATGGACCGGTTTTCCCGGTAATCCGTATTTGCT (site CGCTACTCTAG)  2.85
4. CGATGGTCATGGACCGGTTTTCCCGGTAATCCGTATTTGCT (site CGATGGTCTAG)  2.8
5. CGCATAGCATGGACCGGTTTTCCCGGTAATCCGTATTTGTA (site CGCATAGCTTA)  2.51
6. CGATGATCATGGACCGGTTTTCCCGGTAATCCGTATTTGCT (site CGATGATCTAG)  2.46
7. CGATGATCATGGACCGGTTTTCCCGGTAATCCGTATTTGCT (site CGATAATCTAG)  2.33
8. CGCCGAACATGGACCGGTTTTCCCGGTAATCCGTATTTGCT (site CGCCGAACTAG)  2.15
9. CGCAATGCATGGACCGGTTTTCCCGGTAATCCGTATTTGTT (site CGCAATGCTAA)  2.14
10. CGATTGGCATGGACCGGTTTTCCCGGTAATCCGTATTTGCA (site CGATTGGCTTG)  2.02
11. CGATGGACATGGACCGGTTTTCCCGGTAATCCGTATTTGTT (site CGATGGACTAA)  1.97
12. CGCGCTCCATGGACCGGTTTTCCCGGTAATCCGTATTTGTC (site CGCGCTCCTGA)  1.94
13. CGCCTATCATGGACCGGTTTTCCCGGTAATCCGTATTTGGC (site CGCCTATCTGC)  1.93
14. CGCTAGCCATGGACCGGTTTTCCCGGTAATCCGTATTTGCC (site CTCTAGCCTGG)  1.8
15. CGCGGCACATGGACCGGTTTTCCCGGTAATCCGTATTTGTA (site CGCGGCACTTA)  1.66
16. CGCCTTACATGGACCGGTTTTCCCGGTAATCCGTATTTGCT (site CGCCTTACTAG)  1.57
17. CGCCGTACATGGACCGGTTTTCCCGGTAATCCGTATTTGCC (site CGCCGTACTGG)  1.55
18. CGCTAATCATGGACCGGTTTTCCCGGTAATCCGTATTTGGG (site CGCTAATCTCC)  1.5
19. CGCCGGGCATGGACCGGTTTTCCCGGTAATCCGTATTTGAC (site CGCCGGGCTGT)  1.46
20. CGCCGTACATGGACCGGTTTTCCCGGTAATCCGTATTTGAT (site CGCCGTACTAT)  1.37
21. CGCCCGGCATGGACCGGTTTTCCCGGTAATCCGTATTTGGT (site CGCCCGGCTAC)  1.31
22. CGCATTACATGGACCGGTTTTCCCGGTAATCCGTATTTGGC (site CGCATTACTGC)  1.28
23. CGATCGTCATGGACCGGTTTTCCCGGTAATCCGTATTTGTT (site CGATCGTCTAA)  1.25
24. CGATGGACATGGACCGGTTTTCCCGGTAATCCGTATTTGTT (site CGATAGACTAA)  1.25
25. CGCCCTCCATGGACCGGTTTTCCCGGTAATCCGTATTTGTT (site CGCCCTCCTAA)  1.24
26. CGCAGTACATGGACCGGTTTTCCCGGTAATCCGTATTTGCG (site CGCAGTACTCG)  0.962
27. CGATGATCATGGACCGGTTTTCCCGGTAATCCGTATTTGCT (site CGATTATCTAG)  0.958
28. CGCCGAACATGGACCGGTTTTCCCGGTAATCCGTATTTGCT (site CGCCGGACTAG)  0.95
29. CGCTAGCCATGGACCGGTTTTCCCGGTAATCCGTATTTGCC (site CGCTAGCCTGG)  0.816
30. CGATCTTCATGGACCGGTTTTCCCGGTAATCCGTATTTGTT (site CGATCTTCTAA)  0.751
31. CGCCTTACATGGACCGGTTTTCCCGGTAATCCGTATTTGCT (site CGCCCTACTAG)  0.675
32. CGCCGTCCATGGACCGGTTTTCCCGGTAATCCGTATTTGCT (site CGCCGTCCTAG)  0.666
33. CGCAATCCATGGACCGGTTTTCCCGGTAATCCGTATTTGTG (site CGCAATCCTCA)  0.631
34. CGCCGTACATGGACCGGTTTTCCCGGTAATCCGTATTTGCC (site CGCCGTACTTG)  0.384
35. CGCCGTACATGGACCGGTTTTCCCGGTAATCCGTATTTGCC (site CGCCGTACTAG)  0.256
36. CGCGAGCCATGGACCGGTTTTCCCGGTAATCCGTATTTGGA (site CGCGAGCCTTC)  0.181
37. CGCCGTACATGGACCGGTTTTCCCGGTAATCCGTATTTGCC (site CGCCGTACTCG)  0.114
38. CGCTCAGCATGGACCGGTTTTCCCGGTAATCCGTATTTGGG (site CGCTCAGCTCC)  0.0677
39. CGCGGACCATGGACCGGTTTTCCCGGTAATCCGTATTTGGG (site CGTGGACCTCC)  0.0246
40. CGCGGACCATGGACCGGTTTTCCCGGTAATCCGTATTTGGG (site CGAGGACCTCC)  0.0232
41. CGCGGACCATGGACCGGTTTTCCCGGTAATCCGTATTTGGG (site CGGGGACCTCC)  0.0209
42. CGATCGTCATGGACCGGTTTTCCCGGTAATCCGTATTTGTT (site CGATCGGCTAA)  0.0205
43. CGCCGAACATGGACCGGTTTTCCCGGTAATCCGTATTTGCT (site CGCCGCACTAG)  0.0174
44. CGCCGTACATGGACCGGTTTTCCCGGTAATCCGTATTTGAT (site CGCCGTACTAC)  0.0168
45. CGATCGTCATGGACCGGTTTTCCCGGTAATCCGTATTTGTT (site CGATCGCCTAA)  0.0131
46. CGCCGTCCATGGACCGGTTTTCCCGGTAATCCGTATTTGCT (site CGCCGTACTAG)  0.0123
47. CGCCGTCCATGGACCGGTTTTCCCGGTAATCCGTATTTGCT (site CGCCGTTCTAG)  0.012
48. CGCTAGCCATGGACCGGTTTTCCCGGTAATCCGTATTTGCC (site CACTAGCCTGG)  0.0111
49. CGATGGACATGGACCGGTTTTCCCGGTAATCCGTATTTGTT (site CGATCGACTAA)  0.00844
50. CGCCGAACATGGACCGGTTTTCCCGGTAATCCGTATTTGCT (site CGCCGTACTAG)  0.00823
51. CGATGATCATGGACCGGTTTTCCCGGTAATCCGTATTTGCT (site CGATCATCTAG)  0.00821
52. CGATGGACATGGACCGGTTTTCCCGGTAATCCGTATTTGTT (site CGATTGACTAA)  0.00606
53. CGCCGTACATGGACCGGTTTTCCCGGTAATCCGTATTTGAT (site CGCCGTACTAA)  0.00486
54. CGCCTTACATGGACCGGTTTTCCCGGTAATCCGTATTTGCT (site CGCCATACTAG)  0.00361
55. CGATCTCCATGGACCGGTTTTCCCGGTAATCCGTATTTGCT (site CGATCTCCTAG)  0
56. CGATCTTCATGGACCGGTTTTCCCGGTAATCCGTATTTGTT (site CGATCATCTAG)  0
57. CGATGGTCATGGACCGGTTTTCCCGGTAATCCGTATTTGCT (site CGATCATCTAG)  0
58. CGCAATCCATGGACCGGTTTTCCCGGTAATCCGTATTTGTG (site CGGAATCCTAA)  0
59. CGCAATGCATGGACCGGTTTTCCCGGTAATCCGTATTTGTT (site CGGAATCCTAA)  0
60. CGCAGGCCATGGACCGGTTTTCCCGGTAATCCGTATTTGGG (site CGCAGGCCTCC)  0
61. CGCATACCATGGACCGGTTTTCCCGGTAATCCGTATTTGAC (site CGCATACCTGT)  0
62. CGCCGTACATGGACCGGTTTTCCCGGTAATCCGTATTTGAT (site CGCCGTACTAG)  0
63. CGCCGTCCATGGACCGGTTTTCCCGGTAATCCGTATTTGCT (site CGCCGTGCTAG)  0
64. CGCCTAGCATGGACCGGTTTTCCCGGTAATCCGTATTTGTC (site TTGAATACTAG)  0
65. CGCCTTACATGGACCGGTTTTCCCGGTAATCCGTATTTGCT (site CGCCGTACTAG)  0
66. CGCCTTTCATGGACCGGTTTTCCCGGTAATCCGTATTTGAC (site AGCCTTTCTGT)  0
67. CGCCTTTCATGGACCGGTTTTCCCGGTAATCCGTATTTGAC (site CGCCTTTCTGT)  0
68. CGCCTTTCATGGACCGGTTTTCCCGGTAATCCGTATTTGAC (site GGCCTTTCTGT)  0
69. CGCCTTTCATGGACCGGTTTTCCCGGTAATCCGTATTTGAC (site TGCCTTTCTGT)  0
70. CGCGGACCATGGACCGGTTTTCCCGGTAATCCGTATTTGGG (site CGCGGACCTCC)  0
71. CGCTAGCCATGGACCGGTTTTCCCGGTAATCCGTATTTGCC (site CCCTAGCCTGG)  0
72. CGCTCAACATGGACCGGTTTTCCCGGTAATCCGTATTTGCT (site CGATCATCTAG)  0
73. CGCTCAACATGGACCGGTTTTCCCGGTAATCCGTATTTGCT (site CGCTCAACTAG)  0
74. CGCTCAGCATGGACCGGTTTTCCCGGTAATCCGTATTTGGG (site AGCTCAGCTCC)  0
75. CGCTCAGCATGGACCGGTTTTCCCGGTAATCCGTATTTGGG (site GGCTCAGCTCC)  0
